In general, IC50 refers to the concentration needed to halve the response being measured.

The subject of one series is Vero cells. The series can be described thus: Cytotoxicity in Vero cells. It counts as cell-based, African green monkey. The settings on record: 3 days, hemacytometer; for IC50: read-out: Cytotoxicity IC50 VERO cells.
The next series relates to PBM cells. The series can be described thus: Cytotoxicity in uninfected PHA-stimulated PBM cells. The class given is cell-based, human. The conditions noted are these: 6 days, cell growth, trypan blue exclusion.
Assay in series [1]: as above
The class given is cell-based, human. The conditions noted are these: human, uninfected PHA-stimulated PBM cells.

A short description of series [2]: Cytotoxicity in CEM cells. It counts as cell-based. The conditions noted are these: human, CEM (CEM-CCRF) T-lymphoblastoid cells.
Series [3] can be described thus: Cytotoxicity in Vero cells. It counts as cell-based, African green monkey. The settings on record: African green monkey, Vero (kidney) cells.

As to `O=c1ccn([C@H]2C=C[C@@H](COP(=O)(O)OC[C@H]3OC(O)[C@H](O)[C@@H](O)[C@@H]3O)O2)c(=O)[nH]1` (stereo partly drawn) [10a, 2′,3′-Didehydro-2′,3′-dideoxyuridine 5′-(α/β-D-glucopyranos-6-yl) phosphate], the IC50 in the series on Vero cells was over 100 µM.

Turning to `Cc1cn([C@H]2C=CC(COP(=O)(O)OC[C@H]3O[C@H](O)[C@H](O)[C@@H](O)[C@@H]3O)O2)c(=O)[nH]c1=O` (stereo partly drawn) [10b, 2′,3′-Didehydro-2′,3′-dideoxythymidine 5′-(α/β-D-glucopyranos-6-yl) phosphate], in the series with PBM cells, the “Cytotoxicity IC50 PBM cells” value is on record as “no cytotoxicity”. For the same molecule, in the series with Vero cells, the “Cytotoxicity IC50 VERO cells” value is “no cytotoxicity” and the IC50 was over 100 µM.

For the molecule `O=c1[nH]c(=O)n([C@H]2C[C@H](O)[C@@H](COP(=O)(O)OC[C@H]3OC(O)[C@H](O)[C@@H](O)[C@@H]3O)O2)cc1I` (stereo partly drawn) [10c, 2′-Deoxy-5-iodouridine 5′-(α/β-D-glucopyranos-6-yl) phosphate], the IC50 in the series on Vero cells is over 100 µM.

Take `O=c1[nH]c(=O)n([C@H]2C[C@H](OP(=O)(O)OC[C@H]3O[C@H](O)[C@H](O)[C@@H](O)[C@@H]3O)[C@@H](CO)O2)cc1I` [10d, 2′-Deoxy-5-iodouridine 3′-(α/β-D-glucopyranos-6-yl) phosphate]: in the series with Vero cells, the IC50 is over 100 µM.

Take `O=c1[nH]cnc2c1ncn2[C@H]1CC[C@@H](COP(=O)(O)OC[C@H]2OC(O)[C@H](O)[C@@H](O)[C@@H]2O)O1` (stereo partly drawn) [10e, 2′,3′-Dideoxyinosine 5′-(α/β-D-glucopyranos-6-yl) phosphate]: the IC50 in the series on Vero cells is over 100 µM.

In the case of `Nc1ncnc2c1ncn2[C@H]1CC[C@@H](COP(=O)(O)OC[C@H]2OC(O)[C@H](O)[C@@H](O)[C@@H]2O)O1` (stereo partly drawn) [10f, 2′,3′-Dideoxyadenosine 5′-(α/β-D-glucopyranos-6-yl) phosphate], the IC50 in the series on Vero cells was 73.2 µM.

Regarding `NC(=O)c1ncn([C@@H]2O[C@H](COP(=O)(O)OC[C@H]3OC(O)[C@H](O)[C@@H](O)[C@@H]3O)[C@@H](O)[C@H]2O)n1` (stereo partly drawn) [10g, 1′-(3-Carbamoyl-1,2,4-triazoyl)-β-D-ribofuranose 5′-(α/β-D-glucopyranos-6-yl) phosphate], the IC50 in the series on Vero cells is over 100 µM.

Consider `Nc1ncnc2c1ncn2[C@@H]1O[C@H](COP(=O)(O)OC[C@H]2OC(O)[C@H](O)[C@@H](O)[C@@H]2O)[C@@H](O)[C@@H]1O` (stereo partly drawn) [10h, 1′-Adeninyl-β-D-arabinofuranose 5′-(α/β-D-glucopyranos-6-yl) phosphate], for which the IC50 with Vero cells was over 100 µM.

`Nc1ccn([C@@H]2O[C@H](COP(=O)(O)OC[C@H]3OC(O)[C@H](O)[C@@H](O)[C@@H]3O)[C@@H](O)[C@@H]2O)c(=O)n1` (stereo partly drawn) [10i, 1′-Cytosinyl-β-D-arabinofuranose 5′-(α/β-D-glucopyranos-6-yl) phosphate]: in the series on Vero cells, the IC50 is under 1 µM.

As to `Cc1cn([C@H]2C[C@H](N=[N+]=[N-])[C@@H](CO)O2)c(=O)[nH]c1=O` [AZT, zidovudine], the IC50 at 6 days in series [1] is over 100 µM.

Consider `Nc1ncnc2c1ncn2[C@@H]1O[C@H](CO)[C@@H](O)[C@@H]1O` [Ara-A, ara-adenosine], for which the IC50 at 6 days worked out at 26 µM in series [1] and 26.2 µM in series [2]. The molecule also registered an IC50 at 3 days in series [3] of over 100 µM.

Turning to `Nc1ccn([C@@H]2O[C@H](CO)[C@@H](O)[C@@H]2O)c(=O)n1` [Ara-C, Ara-cytidine], the IC50 at 6 days in series [1] was 57 µM; in series [2] it was under 0.1 µM.

With `O=c1[nH]c(=O)n([C@H]2C[C@H](O)[C@@H](CO)O2)cc1I` [IdUrd], the IC50 in the series on Vero cells is over 100 µM.

With `NC(=O)c1ncn([C@@H]2O[C@H](CO)[C@@H](O)[C@H]2O)n1` [Virazole], the IC50 at 6 days was over 100 µM in series [1] and 53 µM in series [2]. The molecule also had an IC50 at 3 days in series [3] of over 100 µM.

Take `Cc1cn([C@H]2C=C[C@@H](CO)O2)c(=O)[nH]c1=O` [d4T]: the IC50 in the series on Vero cells is over 100 µM.

As to `O=c1ccn([C@H]2C=C[C@@H](CO)O2)c(=O)[nH]1` [d4U], in the series with Vero cells, the IC50 was over 100 µM.

As for `Nc1ncnc2c1ncn2[C@H]1CC[C@@H](CO)O1` [ddA], in the series on Vero cells, the IC50 is over 100 µM.

On to `O=c1[nH]cnc2c1ncn2[C@H]1CC[C@@H](CO)O1` [ddI], for which the IC50 in the series on Vero cells is over 100 µM.

The values above are taken from PMC3070195 (Bioconjugate chemistry, 2010).
